Results reported in patent publication US20090111801A1, “SUBSTITUTED PYRAZINONE DERIVATIVES FOR USE AS A MEDICINE” (Janssen Pharmaceutica N.V., priority 2006, published 2009).

How the values were obtained:
[1] = biological target: T1, hα2C receptor (Homo sapiens, UniProt P18825); experiment: Radioligand binding experiment for α2C-adrenoceptor ([3H]raulwolscine, CHO cell membranes); conditions: [3H]raulwolscine binding; for IC50: read-out: h-α2C pIC50 (converted)
T1 construct: expressed in transfected cells; host or cells: CHO cells, stably transfected; membrane preparation
T1 sequence (P18825 1-462): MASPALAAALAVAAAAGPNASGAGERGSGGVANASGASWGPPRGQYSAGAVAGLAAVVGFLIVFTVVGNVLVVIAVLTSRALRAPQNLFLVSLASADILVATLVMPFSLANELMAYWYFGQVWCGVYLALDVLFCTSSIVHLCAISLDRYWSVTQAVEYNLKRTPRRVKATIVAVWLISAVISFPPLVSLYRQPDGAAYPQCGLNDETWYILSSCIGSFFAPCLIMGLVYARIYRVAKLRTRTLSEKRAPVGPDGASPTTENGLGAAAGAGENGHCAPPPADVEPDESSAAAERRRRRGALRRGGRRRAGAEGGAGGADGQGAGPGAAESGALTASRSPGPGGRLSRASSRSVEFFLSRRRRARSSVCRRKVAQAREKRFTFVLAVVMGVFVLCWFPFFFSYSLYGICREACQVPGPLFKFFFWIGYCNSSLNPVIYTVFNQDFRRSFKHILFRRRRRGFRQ

[2] = biological target: T2, hα2A receptor (Homo sapiens, UniProt P08913); experiment: Radioligand binding experiment for α2A-adrenoceptor ([3H]raulwolscine, CHO cell membranes); conditions: [3H]raulwolscine binding; for IC50: read-out: h-α2A pIC50 (converted)
T2 construct: expressed in transfected cells; host or cells: CHO cells, stably transfected; membrane preparation
T2 sequence (P08913 1-465): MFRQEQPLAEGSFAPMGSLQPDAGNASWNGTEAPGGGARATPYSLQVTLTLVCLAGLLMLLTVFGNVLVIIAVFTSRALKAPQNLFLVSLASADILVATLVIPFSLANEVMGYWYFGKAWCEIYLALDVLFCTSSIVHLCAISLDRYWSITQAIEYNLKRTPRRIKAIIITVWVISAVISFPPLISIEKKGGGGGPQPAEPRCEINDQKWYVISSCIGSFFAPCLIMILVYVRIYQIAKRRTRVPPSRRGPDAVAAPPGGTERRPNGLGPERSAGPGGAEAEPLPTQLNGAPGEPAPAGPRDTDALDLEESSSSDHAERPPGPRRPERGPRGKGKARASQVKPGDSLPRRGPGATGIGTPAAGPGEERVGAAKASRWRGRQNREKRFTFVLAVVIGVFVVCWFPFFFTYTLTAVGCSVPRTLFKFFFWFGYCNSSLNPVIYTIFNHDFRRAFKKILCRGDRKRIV

[3] = biological target: T3, 5HT-Transporter (Homo sapiens, UniProt P31645); experiment: Binding experiment for the 5HT-transporter ([3H]paroxetine, human platelet membranes); conditions: [3H]paroxetine 0.5 nM; for IC50: read-out: h-5HTT pIC50 (converted)
T3 construct: Human platelet membranes (Oceanix Biosciences Corporation, Hanover, Md., USA) were thawed; tissue Oceanix Biosciences Corporation, Hanover, Md., USA; host or cells: human platelet membranes
Procedure, shortened: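 Filter-bound radioactivity from human platelet membranes incubated with [3H]paroxetine and test compound (buffer Tris-HCl 50 mM, 120 mM NaCl, 5 mM KCl) was counted.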

T3 sequence (P31645 whole entry): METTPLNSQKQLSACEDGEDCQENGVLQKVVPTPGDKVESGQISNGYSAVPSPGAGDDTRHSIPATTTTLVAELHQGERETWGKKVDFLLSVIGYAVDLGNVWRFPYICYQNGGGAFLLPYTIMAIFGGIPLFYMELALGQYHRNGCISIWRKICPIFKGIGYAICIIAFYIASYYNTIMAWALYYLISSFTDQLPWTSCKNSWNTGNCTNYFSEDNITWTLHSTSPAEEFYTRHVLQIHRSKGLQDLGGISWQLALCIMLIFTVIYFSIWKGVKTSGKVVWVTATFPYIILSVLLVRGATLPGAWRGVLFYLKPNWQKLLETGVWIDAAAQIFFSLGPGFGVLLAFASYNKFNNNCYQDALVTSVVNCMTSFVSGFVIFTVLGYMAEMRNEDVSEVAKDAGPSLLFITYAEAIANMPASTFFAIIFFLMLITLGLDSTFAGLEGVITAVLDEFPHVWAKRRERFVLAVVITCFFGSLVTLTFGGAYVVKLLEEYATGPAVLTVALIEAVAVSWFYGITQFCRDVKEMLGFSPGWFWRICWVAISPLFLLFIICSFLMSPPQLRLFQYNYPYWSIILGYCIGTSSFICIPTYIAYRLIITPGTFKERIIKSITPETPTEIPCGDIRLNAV

SMILES | IC50 [1] [nM] | IC50 [2] [nM] | IC50 [3] [nM] | h-α2C pIC50 [1] | h-α2A pIC50 [2] | h-5HTT pIC50 [3]
C/C(=C\c1ccccc1)CN1CCC(Nc2nccn(Cc3csc(C)n3)c2=O)CC1 [6-7] | 39.8 | 251 | 2000 |  |  | 
C/C(=C\c1ccccc1)CN1CCC(Nc2nccn(CCCN(C)C(=O)Nc3ccccc3)c2=O)CC1 [1-121] | 6.31 | 158 | 794 |  |  | 
C/C(=C\c1ccccc1)CN1CCC(Nc2nccn(CC(=O)N3CCC(N4CCCC4)CC3)c2=O)CC1 [2-17] | 1.58 | 25.1 | 2000 |  |  | 
COCCCNC(=O)Cn1ccnc(NC2CCN(C/C(C)=C/c3ccccc3)CC2)c1=O [1-23] | 6.31 | 200 | 2510 |  |  | 
C/C(=C\c1ccccc1)CN1CCN(c2nccn(Cc3ccco3)c2=O)CC1 [13-1] | 63.1 | 50.1 | 6310 |  |  | 
CSCCn1ccnc(NC2CCN(C/C(C)=C/c3ccccc3)CC2)c1=O [4-1] | 20 | 39.8 | 3160 |  |  | 
C/C(=C\c1ccccc1)CN1CCC(Nc2nccn(CC(=O)NC(C)(C)Cc3ccccc3)c2=O)CC1 [1-62] | 3.16 | 126 | 1000 |  |  | 
COC(=O)CC(=O)NCc1ccc(Cn2ccnc(NC3CCN(C/C(C)=C/c4ccccc4)CC3)c2=O)cc1 [1-100] | 25.1 | 126 | 1000 |  |  | 
C/C(=C\c1ccccc1)CN1CCC(Nc2nccn(-c3cccnc3)c2=O)CC1 [6-11] | 25.1 | 251 | 3980 |  |  | 
C/C(=C\c1ccccc1)CN1CCC(Nc2nccn(-c3cccc(CNCCCN4CCCC4=O)c3)c2=O)CC1 [1-133] |  |  |  | 8.7 | 7.5 | 5.6
C/C(=C\c1ccccc1)CN1CCC(Nc2nccn(CCCNS(=O)(=O)c3ccccc3)c2=O)CC1 [1-158] | 6.31 | 100 | 158 |  |  | 
O=c1c(NC2CCN(C/C=C/c3ccccc3)CC2)nccn1Cc1ccc(Br)cc1 [16-17] | 316 | 501 | 794 |  |  | 
C/C(=C\c1ccccc1)CN1CCN(c2nccn(Cc3ccc(CN)cc3)c2=O)CC1 [8-1] | 12.6 | 39.8 | 1000 |  |  | 
C/C(=C\c1ccccc1)CN1CCC(Nc2nccn(CCN3CCCCC3)c2=O)CC1 [2-3] | 6.31 | 63.1 | 3160 |  |  | 
C/C(=C\c1ccccc1)CN1CCC(Nc2nccn(CC(=O)N(CCN3CCCC3)Cc3ccc(F)cc3)c2=O)CC1 [1-136] | 0.316 | 10 | 631 |  |  | 
C/C(=C\c1ccccc1)CN1CCC(Nc2nccn(Cc3ccccc3C(F)(F)F)c2=O)CC1 [5-21] | 25.1 | 158 | 398 |  |  | 
C/C(=C\c1ccccc1)CN1CCC(Nc2nccn(CN3C(=O)c4ccccc4C3=O)c2=O)CC1 [2-48] | 6.31 | 31.6 | 158 |  |  | 
C/C(=C\c1ccccc1)CN1CCC(Nc2nccn(CC(=O)c3cccc(-c4ccccc4)c3)c2=O)CC1 [5-33] | 100 | 79.4 | 1260 |  |  | 
C/C(=C\c1ccccc1)CN1CCC(Nc2nccn(CCCN(Cc3ccccc3)S(C)(=O)=O)c2=O)CC1 [1-169] | 10 | 200 | 316 |  |  | 
C/C(=C\c1ccccc1)CN1CCC(Nc2nccn(-c3ccc(CN4C(=O)c5ccccc5C4=O)cc3)c2=O)CC1 [2-55] |  |  |  | 8.0 | 6.8 | 6.6
C/C(=C\c1ccccc1)CN1CCC(Nc2nccn(-c3cccc(CN(C)Cc4ccccc4)c3)c2=O)CC1 [1-53] |  |  |  | 8.6 | 8.4 | 6.7
C/C(=C\c1ccccc1)CN1CCC(Nc2nccn(-c3ccc(NC(=O)Cc4ccccc4)cc3)c2=O)CC1 [1-81] | 25.1 | 200 | 200 |  |  | 
CCCN(C)C(=O)Cn1ccnc(NC2CCN(C/C(C)=C/c3ccccc3)CC2)c1=O [1-19] | 10 | 126 | 1580 |  |  | 
C/C(=C\c1ccccc1)CN1CCC(Nc2nccn(-c3ccc(CNCC4CCCO4)cc3)c2=O)CC1 (stereo not drawn) [1-146] |  |  |  | 8.6 | 7.0 | 6.3

SMILES | IC50 [1] [nM] | IC50 [2] [nM] | IC50 [3] [nM] | h-α2C pIC50 [1] | h-α2A pIC50 [2] | h-5HTT pIC50 [3]
C/C(=C\c1ccccc1)CN1CCC(Nc2nccn(CC(=O)C34CC5CC(CC(C5)C3)C4)c2=O)CC1 [7-10] | 10 | 50.1 | 1260 |  |  | 
C/C(=C\c1ccccc1)CN1CCN(c2nccn(Cc3ccc(Cl)s3)c2=O)CC1 [13-2] | 39.8 | 79.4 | 3980 |  |  | 
C/C(=C\c1ccccc1)CN1CCC(Nc2nccn(-c3ccc(C(=O)N4CCC(N(C)C)C4)cc3)c2=O)CC1 (stereo not drawn) [2-2] | 5.01 | 63.1 | 398 |  |  | 
C/C(=C\c1ccccc1)CN1CCC(Nc2nccn(CC(=O)c3ccccc3)c2=O)CC1 [5-29] | 10 | 15.8 | 794 |  |  | 
C/C(=C\c1ccccc1)CN1CCC(Nc2nccn(-c3ccc(N4CCOCC4)cc3)c2=O)CC1 [2-43] | 20 | 126 | 3980 |  |  | 
C/C(=C\c1ccccc1)CN1CCC(Nc2nccn(CC(=O)N(C)Cc3ccccc3)c2=O)CC1 [1-52] | 2.51 | 63.1 | 631 |  |  | 
C/C(=C\c1ccccc1)CN1CCC(Nc2nccn(CC(=O)N3CCOCC3)c2=O)CC1 [2-41] | 12.6 | 126 | 3980 |  |  | 
C/C(=C\c1ccccc1)CN1CCC(Nc2nccn(CC3CCCCO3)c2=O)CC1 (stereo not drawn) [6-1] | 20 | 126 | 1000 |  |  | 
C/C(=C\c1ccccc1)CN1CCC(Nc2nccn(CCCNC(=O)Nc3ccccc3)c2=O)CC1 [1-119] | 5.01 | 158 | 158 |  |  | 
C/C(=C\c1ccccc1)CN1CCC(Nc2nccn(C/C=C/c3ccccc3)c2=O)CC1 [5-28] | 63.1 | 158 | 501 |  |  | 
CCCn1ccnc(NC2CCN(C/C(C)=C/c3ccccc3)CC2)c1=O [7-4] | 12.6 | 25.1 | 631 |  |  | 
C/C(=C\c1ccccc1)CN1CCC(Nc2nccn(CC(=O)NCCN3CCOCC3)c2=O)CC1 [1-148] | 7.94 | 251 | 1260 |  |  | 
C/C(=C\c1ccccc1)CN1CCN(c2nccn(CC(=O)c3ccccc3)c2=O)CC1 [12-5] | 50.1 | 316 | 3980 |  |  | 
COc1cc(CNC(=O)Cn2ccnc(NC3CCN(C/C(C)=C/c4ccccc4)CC3)c2=O)cc(OC)c1 [1-65] | 3.98 | 100 | 794 |  |  | 
C/C(=C\c1ccccc1)CN1CCC(Nc2nccn(-c3ccc(N4CCN(c5ccccc5)CC4)cc3)c2=O)CC1 [2-28] | 15.8 | 100 | 794 |  |  | 
C/C(=C\c1ccccc1)CN1CCC(Nc2nccn(-c3cccc(N4CCN(c5ccccc5)CC4)c3)c2=O)CC1 [2-27] | 20 | 31.6 | 200 |  |  | 
COc1ccc(-c2nnc(Cn3ccnc(N4CCN(C/C(C)=C/c5ccccc5)CC4)c3=O)o2)cc1 [13-4] | 63.1 | 63.1 | 398 |  |  | 
C/C(=C\c1ccccc1)CN1CCC(Nc2nccn(CCc3ccccc3)c2=O)CC1 [5-27] | 15.8 | 100 | 398 |  |  | 
C/C(=C\c1ccccc1)CN1CCC(Nc2nccn(CCCNC(=O)c3ccccc3)c2=O)CC1 [1-72] | 3.16 | 126 | 1580 |  |  | 
C/C(=C\c1ccccc1)CN1CCN(c2nccn(CC3CCCCC3)c2=O)CC1 [14-3] | 158 | 398 | 7940 |  |  | 
C/C(=C\c1ccccc1)CN1CCC(Nc2nccn(CC(=O)c3ccc(N4CCCC4)cc3)c2=O)CC1 [2-1] | 39.8 | 31.6 | 1260 |  |  | 
C/C(=C\c1ccccc1)CN1CCC(Nc2nccn(-c3nccs3)c2=O)CC1 [6-5] | 7.94 | 50.1 | 316 |  |  | 
C/C(=C\c1ccccc1)CN1CCC(Nc2nccn(-c3cccc(NC(=O)c4cccc(F)c4)c3)c2=O)CC1 [1-76] | 31.6 | 20 | 126 |  |  | 
